Where “and” joins values, the source holds several entries; their conditions need not be identical. Equal entries are not always repeated.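 Interpolation was linear, between the two tested concentrations surrounding the appropriate level; five concentrations were tested over 48 hours in 96-well plates. At the GI50, growth is halved. Definition used: TGI = concentration required for complete inhibition of growth.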
How the values were obtained:
Assay in all cases: DTP human tumour cell line panel, 48 h
A549 NSCLC = system: A549 NSCLC
ACHN renal = system: ACHN renal
HOP-62 NSCLC = system: HOP-62 NSCLC
HOP-92 NSCLC = system: HOP-92 NSCLC
MOLT-4 leukemia = system: MOLT-4 leukemia
NCI-H226 lung = system: NCI-H226 lung
NCI-H522 lung = system: NCI-H522 lung
OVCAR-3 ovarian = system: OVCAR-3 ovarian
SF-268 CNS = system: SF-268 CNS
SW-620 colon = system: SW-620 colon

| Compound | GI50 (A549 NSCLC) | TGI (A549 NSCLC) | TGI (ACHN renal) | GI50 (HOP-62 NSCLC) | TGI (HOP-62 NSCLC) | GI50 (HOP-92 NSCLC) | TGI (HOP-92 NSCLC) | GI50 (MOLT-4 leukemia) | TGI (MOLT-4 leukemia) | GI50 (NCI-H226 lung) | TGI (NCI-H226 lung) | GI50 (NCI-H522 lung) | TGI (NCI-H522 lung) | GI50 (OVCAR-3 ovarian) | TGI (OVCAR-3 ovarian) | GI50 (SF-268 CNS) | TGI (SF-268 CNS) | GI50 (SW-620 colon) | TGI (SW-620 colon) | GI50 (ACHN renal) |
| --- | --- | --- | --- | --- | --- | --- | --- | --- | --- | --- | --- | --- | --- | --- | --- | --- | --- | --- | --- | --- |
| C/C=C1\C[C@@H]2C(OC)Nc3cc(O)c(OC)cc3C(=O)N2C1 (some centres not stated) | 0.0215 µM | > 100 µM | 0.0294 µM | 0.00296 µM | 0.0155 µM and < 0.0566 µM | 0.00738 µM | 0.129 µM and < 0.0137 µM | 0.00248 µM | 0.225 µM | 0.116 µM | 0.728 µM and 0.163 µM | 0.00119 µM | 0.00432 µM | 0.00419 µM | 0.0341 µM | 0.0027 µM | 0.174 µM and 1.71 µM | 0.00703 µM | 36.8 µM | – |
| O=[N+]([O-])c1cc([N+](=O)[O-])c(C(Cl)C(Cl)c2ccccc2)cc1C(Cl)C(Cl)c1ccccc1 (configuration not stated) | – | 4.51 µM | 3.55 µM | – | 11.9 µM | – | 3.26 µM | – | > 23.3 µM | – | 5.18 µM | – | 3.39 µM | – | 5.06 µM | – | 4.02 µM | – | 3.46 µM | – |
| C=CCCC(O)c1ccc(CCCCCCCCCCC)o1 (configuration not stated) | 18.6 µM | 35.1 µM | 28.9 µM | 17.3 µM | 32.2 µM | 18.2 µM | 35.9 µM | 29.9 µM | > 100 µM | 17.7 µM | 33.1 µM | 17 µM | 32.8 µM | 16.1 µM | 35.9 µM | 19.3 µM | 43.9 µM | 17 µM | 32.2 µM | 15.6 µM |
| CN1CCN(CCCN2c3ccccc3Sc3ccc(C(F)(F)F)cc32)CC1 | 2.31 µM | 6.47 µM and 24.5 µM and 25.2 µM | 4.67 µM and 23.3 µM and 24.7 µM | 1.73 µM | 3.94 µM and 24.9 µM and 26.5 µM | 1.07 µM and 2.26 µM and 7.54 µM | 4.35 µM and 10.4 µM and 20.5 µM | 2.35 µM | 4.92 µM and 10.8 µM and 20.6 µM | 2.16 µM | 6.41 µM and 32.8 µM and 32.2 µM | 1.87 µM and 4.05 µM and 13 µM | 3.5 µM and 17.8 µM and 26.1 µM | 1.93 µM and 6.26 µM and 13.8 µM | 3.76 µM and 20.4 µM and 27 µM | 3.72 µM | 14.3 µM and 25.4 µM and 26.2 µM | 1.85 µM and 3.67 µM and 8.47 µM | 4.44 µM and 18.1 µM and 21.4 µM | 2.1 µM |
| O=[N+]([O-])c1ccc(NN=C2c3ccccc3Cc3ccccc32)c([N+](=O)[O-])c1 | – | > 100 µM | > 100 µM | – | > 100 µM | – | > 100 µM | – | > 100 µM | – | > 100 µM | – | 7.97 µM | – | 5.19 µM | – | > 100 µM | – | > 100 µM | – |
| COc1cc(C2C(C(=O)OCc3ccccc3)=C(C)NC(C)=C2C(=O)OCc2ccccc2)cc(OC)c1OC | 3.6 µM | > 100 µM | > 100 µM | 12.1 µM | 66.5 µM | 3.08 µM | 37.9 µM | 1.31 µM | > 100 µM | 2.41 µM | > 100 µM | 3.57 µM | > 100 µM | 4.99 µM | > 100 µM | 5.17 µM | > 100 µM | – | – | 2.79 µM |
| O=C1c2ccccc2CCC1(Br)Br | 6.84 µM | 19.1 µM | 2.55 µM | 6.32 µM | 17.8 µM | 1.27 µM | 2.58 µM | 0.631 µM | 3.94 µM | 1.98 µM | 4.56 µM | 0.293 µM | 0.793 µM | 1.75 µM | 3.17 µM | 4.1 µM | 14.1 µM | 0.384 µM | 1.53 µM | 1.21 µM |
| N#CC(C(=O)C(=O)Nc1ccc(Cl)c(Cl)c1)c1ccc(Cl)cc1 (configuration not stated) | – | > 100 µM | > 100 µM | – | > 100 µM | – | 99.2 µM | – | > 100 µM | – | > 100 µM | – | 65.5 µM | – | > 100 µM | – | > 100 µM | – | 30.8 µM | – |
| CNC(=O)c1c(NC(=O)c2ccc(C(C)C)cc2)sc2c1CCC(=O)C2 | 0.401 µM | 5.45 µM | 1.14 µM | 3.41 µM | 18.4 µM | 0.703 µM | 3.39 µM | 0.5 µM | 7.91 µM | 1.73 µM | 5.29 µM | 0.149 µM | 1.04 µM | 0.423 µM | 1.57 µM | 0.443 µM | 2.41 µM | 0.125 µM | 1.32 µM | 0.279 µM |
| COc1ccc(NC(=O)CC(=O)n2nc(-c3ccccc3)c(N=Nc3ccccc3C)c2-c2ccccc2)cc1 | – | 41.7 µM | 63.7 µM | – | 33.8 µM | – | 34.9 µM | – | > 100 µM | – | 63.7 µM | – | 47.8 µM | – | 33.3 µM | – | 35.7 µM | – | > 62.3 µM | – |
| CC(C)NCCCCCNc1cc(O)cc2cccnc12 | > 100 µM | > 100 µM | > 100 µM | > 100 µM | > 100 µM | 6.89 µM | > 100 µM | > 77.8 µM | > 100 µM | > 100 µM | > 100 µM | 3.94 µM | > 100 µM | 2.43 µM | 9.37 µM | > 100 µM | > 100 µM | > 100 µM | > 100 µM | > 100 µM |
| CCOC(=O)NN(C(=O)OCC)C(C(=O)c1ccc(Cl)cc1)=C1NCCN1 | – | > 100 µM | > 100 µM | – | > 100 µM | – | > 100 µM | – | > 100 µM | – | > 100 µM | – | > 100 µM | – | > 100 µM | – | > 100 µM | – | > 100 µM | – |
| O=C(NCCCCCCNC(=O)NC1OCC(O)C(O)C1O)NC1OCC(O)C(O)C1O (configuration not stated) | – | > 100 µM | > 100 µM | – | > 100 µM | – | > 100 µM | – | > 100 µM | – | > 100 µM | – | > 100 µM | – | > 100 µM | – | > 100 µM | – | > 100 µM | – |
| Cc1ccc2nc(CC(=O)c3ccc4ccccc4c3)c(=O)[nH]c2c1 | – | > 100 µM | > 100 µM | – | > 100 µM | – | > 100 µM | – | > 100 µM | – | > 100 µM | – | > 100 µM | – | > 100 µM | – | > 100 µM | – | > 100 µM | – |
| CC(=O)OCc1c(C)c2ccccc2n1C(C)=O | – | > 100 µM | 71 µM | – | > 100 µM | – | > 100 µM | – | 86.7 µM | – | > 100 µM | – | 39.2 µM | – | 62.8 µM | – | > 100 µM | – | > 100 µM | – |
| O=C(NCc1cccs1)OC1CC2CCC1C2 (configuration not stated) | – | > 100 µM | > 100 µM | – | > 100 µM | – | > 100 µM | – | > 100 µM | – | > 100 µM | – | > 100 µM | – | > 100 µM | – | > 100 µM | – | > 100 µM | – |

Source: PubChem BioAssay (NCI)
